Reference: patent publication US20220213126A1, “SMALL MOLECULE AUTOPHAGY INDUCERS FOR THE TREATMENT OF CANCER AND NEURODEGENERATIVE DISEASES” (John Wayne Cancer Institute, priority 2019, published 2022)
Values joined by “and” are separate entries in the source; they are usually repeats but may differ in a detail not shown here. Equal values may be shown once. Read-outs that look alike come from different tables or passages of the source.

How the values were obtained:
[1] = tested on: proteins of MDA-MB-1 cells; assay: Thermal proteome profiling (TPP) for binding proteins
Description: To further elucidate targets that activate the above signaling mechanisms, thermal proteome profiling (TPP) was used to identify binding proteins (Franken et al., Nat. Protoc. 10:1567-1593, 2015; Miettinen et al., EMBO J. 37:e98359, 2018) (FIG. 5A). TPP enables an unbiased assessment of the proteins […] bound to VMY-BC-1 on a proteome-wide scale. Cell lysates were made from MDA-MB-1 cells treated with vehicle or 10 μM VMY-BC-1 for 24 hours. Lysates were heated at different temperatures for 3 minutes in a thermal cycler. Equal amounts of protein were digested, labeled with TMT 10-plex and analyzed by mass spectrometry. The fold-changes in protein abundances were computed relative to the lowest temperature in the temperature set. After a normalization, melting curves were fitted to the fold-changes of each individual protein. The thermal stability of proteins affected by VMY-BC-1 treatment was calculated using the differences between melting points from control for each protein. From the 5,634 proteins screened, 10 target proteins were identified that bound VMY-BC-1: LIMK1, ATM, CDLK5, ULK1, WNK1, PP2C, AK1, IKBKAP, Q53E18, and HDAC1 (FIG. 5B).

[2] = Stability in simulated intestinal fluid; type: physicochemical
[3] = Metabolic stability in human liver microsomes; type: in vitro ADME; conditions: for microsomal CLint: human, human liver microsomes
[4] = biological target: T1, CYP1A2 (Homo sapiens, UniProt P05177); assay: CYP inhibition in pooled human liver microsomes; type: in vitro ADME
T1 construct: from tissue; host or cells: pooled human liver microsomes
T1 sequence (P05177 whole entry): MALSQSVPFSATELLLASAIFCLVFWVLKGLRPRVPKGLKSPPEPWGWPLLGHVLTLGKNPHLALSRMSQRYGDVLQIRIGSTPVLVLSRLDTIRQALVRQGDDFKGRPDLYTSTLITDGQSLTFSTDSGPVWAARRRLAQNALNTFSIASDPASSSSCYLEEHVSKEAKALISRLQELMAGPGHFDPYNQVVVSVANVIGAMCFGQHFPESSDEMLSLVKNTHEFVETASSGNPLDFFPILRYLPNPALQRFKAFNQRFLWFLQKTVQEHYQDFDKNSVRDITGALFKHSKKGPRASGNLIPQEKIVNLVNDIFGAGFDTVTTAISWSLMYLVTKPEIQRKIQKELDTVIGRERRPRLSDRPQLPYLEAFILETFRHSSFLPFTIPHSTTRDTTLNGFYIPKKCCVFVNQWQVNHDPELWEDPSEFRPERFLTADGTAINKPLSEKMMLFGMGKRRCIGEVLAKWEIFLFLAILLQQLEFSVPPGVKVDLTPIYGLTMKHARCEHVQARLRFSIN

[5] = biological target: T2, CYP3A4 (Homo sapiens, UniProt P08684); assay: CYP inhibition in pooled human liver microsomes; type: in vitro ADME
T2 construct: from tissue; host or cells: pooled human liver microsomes
T2 sequence (P08684 2-503): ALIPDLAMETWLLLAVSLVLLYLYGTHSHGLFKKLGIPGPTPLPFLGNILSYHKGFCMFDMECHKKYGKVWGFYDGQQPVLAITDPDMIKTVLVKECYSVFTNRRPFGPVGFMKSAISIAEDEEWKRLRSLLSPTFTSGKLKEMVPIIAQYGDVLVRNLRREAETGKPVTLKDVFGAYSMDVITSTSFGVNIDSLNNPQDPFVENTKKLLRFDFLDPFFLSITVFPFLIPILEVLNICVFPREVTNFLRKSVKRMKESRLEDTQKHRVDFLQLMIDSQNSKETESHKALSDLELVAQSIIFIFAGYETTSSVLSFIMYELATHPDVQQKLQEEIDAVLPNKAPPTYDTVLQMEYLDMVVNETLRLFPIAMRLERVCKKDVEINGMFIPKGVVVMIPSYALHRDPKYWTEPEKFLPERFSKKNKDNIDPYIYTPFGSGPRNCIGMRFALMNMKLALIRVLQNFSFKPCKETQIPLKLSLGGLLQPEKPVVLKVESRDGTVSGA

[6] = tested on: MDA-MB-231 tumor xenografts; assay: MDA-MB-231 tumor xenograft efficacy; type: in vivo, athymic nude mice
Description: To evaluate the anti-tumor efficacy of VMY-BC-1 in vivo, MDA-MB-231 tumor xenografts were established in the flanks of athymic nude mice. 5×10^6 MDA-MB-231 TNBC cells in 1×HBSS with 1:1 Matrigel® were implanted subcutaneously in the flank of 5-6 week old female athymic nude mice (CrTac:Ncr-Foxn1^nu; Taconic Biosciences, India). Mice (n=8) were treated with vehicle (2% (v/v) Tween® 80+98% (v/v) of 0.5% (w/v) hydroxypropyl methylcellulose (HPMC) in water) or VMY-BC-1 75 mg/kg PO daily for 14 days. The dose volume was 10 mL/kg. Tumor volume, tumor growth inhibition (TGI), body weight, and clinical signs were monitored. Tumor growth was measured twice weekly using a digital Vernier caliper. Tumor volume was calculated as [length×width^2]/2. TGI was calculated as:
% TGI={(TV ControlFinal−TV ControlInitial)−(TV TreatedFinal−TV TreatedInitial)}×100
(§1) At the end of the study, brain and plasma samples were collected for drug concentration. Tumor tissues were collected for immunohistochemistry, Western blot, and bioanalysis. Statistical analysis of tumor growth in the control and treated groups was performed by Student's T test using GraphPad Prism (Ver. 5.03).

[7] = Plasma vs tumor PK in MDA-MB-231 xenograft mice; type: in vivo, athymic nude mice
Description: FIGS. 10A and 10B are graphs showing plasma (FIG. 10A) and tumor (FIG. 10B) concentrations of VMY-BC-1 in MDA-MB-231 xenograft mice administered 75 mg/kg VMY-BC-1.
as §1
The impact of VMY-BC-1 on autophagy proteins in tumor tissue was also investigated. […] Finally, as shown in Table 4 and FIGS. 10A and 10B, VMY-BC-1 had 3-fold higher drug concentration (Cmax) in tumors than in plasma.

[8] = tested on: GBM4; assay: GBM cell viability, Alamar blue, 72 hours; type: cell-based; conditions: GBM4, patient-derived cell line
Description: (§2) The effect of VMY-BC-1 was tested on a panel of GBM cell lines. […] In this study 100 μM was the highest drug concentration used, with 3-fold dilution for a 10 dose response curve.

[9] = tested on: GBM8; assay: GBM cell viability, Alamar blue, 72 hours; type: cell-based; conditions: GBM8, patient-derived cell line
Description: as §2

[10] = tested on: GL261; assay: GBM cell viability, Alamar blue, 72 hours; type: cell-based; conditions: Mus musculus, GL261, established glioma cell line
Description: as §2

[11] = tested on: U251; assay: GBM cell viability, Alamar blue, 72 hours; type: cell-based; conditions: Homo sapiens, U-251, U251, established glioma cell line
Description: as §2

[12] = tested on: U87; assay: GBM cell viability, Alamar blue, 72 hours; type: cell-based; conditions: Homo sapiens, U-87 MG, U87, established glioma cell line
Description: as §2

[13] = Pharmacokinetics of BC-2 and BC-3 in mouse plasma and brain; type: in vivo, mice; conditions: mouse, in vivo, po, 5 mg/kg
Description: Pharmacokinetics were assessed in mice administered a single oral dose of 5 mg/kg of the indicated compound (Tables 9 and 10).

[14] = athymic nude, mouse, Plasma, oral 75 mg/kg
[15] = athymic nude, mouse, Tumor, oral 75 mg/kg

With `COc1ccc(/C=C/c2cc(OC)cc(B(O)O)c2)cc1` [VMY-BC-1] the “Target proteins identified that bound VMY-BC-1” value ([1]; 10 μM, 24 hours, 5,634 proteins screened) was 10, the “Fraction of bound protein” value ([1]; of 5,634 proteins screened) was 0.0017 fraction and the “Stability in simulated intestinal fluid” value [2] was 97.24% remaining. The “Stability in simulated intestinal fluid (words)” value [2] was “stable”, the “Remaining at the end of incubation in human liver microsomes” value ([3]; 30 min incubation) was 40% and the microsomal CLint ([3]; Table 3, read-out: Metabolic stability in human liver microsome (CLint)) was 41.3 µL/min/mg. The microsomal CLint ([3]; read-out: Intrinsic clearance in human liver microsomes) was 43 µL/min/mg, the IC50 [4] was 5 µM and 4.7 µM and the IC50 ([5]; read-out: IC50 CYP 3A) was 70 to 100 µM. The IC50 ([5]; read-out: IC50 inhibition of CYP3A4MD2) was over 100 µM, the IC50 ([5]; read-out: IC50 inhibition of CYP3A4TST) was over 100 µM and the Body weight ([6]; 75 mg/kg PO daily for 14 days) was “without any apparent change in body weight”. For the same compound, the Tumor growth inhibition ([6]; 75 mg/kg PO daily for 14 days) was “approximately 30%”, the “Apoptosis by TUNEL staining” value ([6]; tumor tissue, 75 mg/kg PO) was “significant increase in apoptosis” and the “Reduction in Ki67 proliferation marker vs control” value ([6]; tumor tissue, 75 mg/kg PO) was 50%. The “Phospho-ULK1 and LC3 protein expression in tumors” value ([6]; tumor tissue, 24 hours after treatment) was “upregulated”, the “Drug levels in tumor vs plasma” value ([7]; 75 mg/kg oral) was “higher VMY-BC-1 drug levels in tumor than in plasma” and the AUCextrap ([7]; Plasma, oral 75 mg/kg) was 0.34%. The AUCextrap ([7]; Tumor, oral 75 mg/kg) was 7.48%, the AUCinf ([7]; Tumor, oral 75 mg/kg) was 41005.56 ng·h/g and the AUClast ([7]; Tumor, oral 75 mg/kg) was 37936.36 ng·h/g. For the same compound, the Kp ([7]; athymic nude, mouse, tumor and plasma, 75 mg/kg oral, read-out: Cmax in tumors relative to plasma) was 3, the AUC(0-inf) [7, 14] was 32300 ng·h/mL and the AUC(0-t) [7, 14] was 32200 ng·h/mL. It also gave a Cmax [7, 14] of 4530 ng/mL, an MRT last [7, 14] of 5.76 h and a Tmax [7, 14] of 0.5 h. For the same compound, the half-life [7, 14] was 3.15 h, the Cmax [7, 15] was 13600 ng/g and the MRT last [7, 15] was 1.94 h. It also gave a Tmax [7, 15] of 1 h, a half-life [7, 15] of 1.52 h and an IC50 [8] of 11 µM. The IC50 [9] was 9.28 µM, the IC50 [10] was 4.2 µM and the IC50 [11] was 3.98 µM. For the same compound, the IC50 [12] was 5.88 µM, the AUC(0-inf) [13] was 865 ng·h/mL and the “AUC(inf)” value [13] was 149000 ng·min/mL. For the same compound, the Cmax [13] was 578 ng/mL and 1560 ng/g, the “Concentration in brain vs plasma” value [13] was “higher concentration in brain than in plasma” and the Tmax [13] was 0.5 h. For the same compound, the concentration at 30 min [13] was 578 ng/mL and 1560 ng/g, the concentration at 60 min [13] was 470 ng/mL and 1400 ng/g and the concentration at 180 min [13] was 60 ng/mL and 169 ng/g. It also gave a Tmax ([13]; Tmax) of 0.5 h and a half-life ([13]; T½) of 0.733 h.
